In PubChem BioAssay AID1963976 (Molecular Pharmacology Branch, DTP, NCI, 2024):
Where “and” joins values, the source holds several entries; their conditions need not be identical. Equal entries are not always repeated.

Test system: 435261-313-R-J1-PDC tumor spheroid viability
Assay: Anticancer human tumor 435261-313-R-J1-PDC patient-derived colon adenocarcinoma cell line growth inhibition [PI3K]
Conditions: spheroids with HUVEC and MSC; for viability, T/C: stronger effect = lower value
Method in brief: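 High-throughput combination screen: PI3K inhibitors crossed with targeted small molecules on complex spheroids of tumor cells, HUVEC and MSCs at 37 degrees C, 5% CO2. Top concentration was at or near clinical Cmax (otherwise 10 microM), with half-log decrements.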

[1] = curve of first compound, second compound 0.0316 µM
[2] = curve of first compound, second compound 0.1 µM
[3] = curve of first compound, second compound 0.316 µM
[4] = curve of first compound, second compound 1 µM
[5] = curve of first compound, second compound 0.00316 µM
[6] = curve of first compound, second compound 0.01 µM
[7] = second compound 0.00316 µM, first compound 0.0316 µM
[8] = second compound 0.00316 µM, first compound 0.1 µM
[9] = second compound 0.00316 µM, first compound 0.316 µM
[10] = second compound 0.00316 µM, first compound 1 µM
[11] = second compound 0.00316 µM, first compound 3.16 µM
[12] = second compound 0.00316 µM, first compound 10 µM
[13] = second compound 0.01 µM, first compound 0.0316 µM
[14] = second compound 0.01 µM, first compound 0.1 µM
[15] = second compound 0.01 µM, first compound 0.316 µM
[16] = second compound 0.01 µM, first compound 1 µM
[17] = second compound 0.01 µM, first compound 3.16 µM
[18] = second compound 0.01 µM, first compound 10 µM
[19] = second compound 0.0316 µM, first compound 0.0316 µM
[20] = second compound 0.0316 µM, first compound 0.1 µM
[21] = second compound 0.0316 µM, first compound 0.316 µM
[22] = second compound 0.0316 µM, first compound 1 µM
[23] = second compound 0.0316 µM, first compound 3.16 µM
[24] = second compound 0.0316 µM, first compound 10 µM
[25] = second compound 0.1 µM, first compound 0.0316 µM
[26] = second compound 0.1 µM, first compound 0.1 µM
[27] = second compound 0.1 µM, first compound 0.316 µM
[28] = second compound 0.1 µM, first compound 1 µM
[29] = second compound 0.1 µM, first compound 3.16 µM
[30] = second compound 0.1 µM, first compound 10 µM
[31] = second compound 0.316 µM, first compound 0.0316 µM
[32] = second compound 0.316 µM, first compound 0.1 µM
[33] = second compound 0.316 µM, first compound 0.316 µM
[34] = second compound 0.316 µM, first compound 1 µM
[35] = second compound 0.316 µM, first compound 3.16 µM
[36] = second compound 0.316 µM, first compound 10 µM
[37] = second compound 1 µM, first compound 0.0316 µM
[38] = second compound 1 µM, first compound 0.1 µM
[39] = second compound 1 µM, first compound 0.316 µM
[40] = second compound 1 µM, first compound 1 µM
[41] = second compound 1 µM, first compound 3.16 µM
[42] = second compound 1 µM, first compound 10 µM
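Also: spheroids exposed to compounds for 7 days.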

Structure (SMILES): Cn1cnc2c(F)c(Nc3ccc(Br)cc3Cl)c(C(=O)NOCCO)cc21 + CC(Nc1ncnc2nc[nH]c12)c1cc2cccc(Cl)c2c(=O)n1-c1ccccc1
- IC50 [1]: 15.5 nM
- IC50 [2]: 10.7 nM
- IC50 [3]: 16 nM
- IC50 [4]: < 9.49 nM
- IC50 (curve of first compound, second compound 3.16 µM): < 9.49 nM
- IC50 (curve of first compound, second compound 10 µM): < 9.49 nM
- viability, T/C (second compound 0.0316 µM, first compound 0.00949 µM): 60.3%
- viability, T/C (second compound 0.0316 µM, first compound 0.03 µM): 35.7%
- viability, T/C (second compound 0.0316 µM, first compound 0.0949 µM): 26.9%
- viability, T/C (second compound 0.0316 µM, first compound 0.3 µM): 25.1%
- viability, T/C (second compound 0.0316 µM, first compound 0.949 µM): 22.2%
- viability, T/C (second compound 0.0316 µM, first compound 3 µM): 18.6%
- viability, T/C (second compound 0.1 µM, first compound 0.00949 µM): 51.9%
- viability, T/C (second compound 0.1 µM, first compound 0.03 µM): 34.6%
- viability, T/C (second compound 0.1 µM, first compound 0.0949 µM): 23%
- viability, T/C (second compound 0.1 µM, first compound 0.3 µM): 25%
- viability, T/C (second compound 0.1 µM, first compound 0.949 µM): 21.7%
- viability, T/C (second compound 0.1 µM, first compound 3 µM): 16.6%
- viability, T/C (second compound 0.316 µM, first compound 0.00949 µM): 59.9%
- viability, T/C (second compound 0.316 µM, first compound 0.03 µM): 38.6%
- viability, T/C (second compound 0.316 µM, first compound 0.0949 µM): 25%
- viability, T/C (second compound 0.316 µM, first compound 0.3 µM): 22.7%
- viability, T/C (second compound 0.316 µM, first compound 0.949 µM): 21.4%
- viability, T/C (second compound 0.316 µM, first compound 3 µM): 13.9%
- viability, T/C (second compound 1 µM, first compound 0.00949 µM): 43.4%
- viability, T/C (second compound 1 µM, first compound 0.03 µM): 34.5%
- viability, T/C (second compound 1 µM, first compound 0.0949 µM): 26.4%
- viability, T/C (second compound 1 µM, first compound 0.3 µM): 22.2%
- viability, T/C (second compound 1 µM, first compound 0.949 µM): 21%
- viability, T/C (second compound 1 µM, first compound 3 µM): 12.1%
- viability, T/C (second compound 3.16 µM, first compound 0.00949 µM): 38.8%
- viability, T/C (second compound 3.16 µM, first compound 0.03 µM): 29.6%
- viability, T/C (second compound 3.16 µM, first compound 0.0949 µM): 21%
- viability, T/C (second compound 3.16 µM, first compound 0.3 µM): 20.6%
- viability, T/C (second compound 3.16 µM, first compound 0.949 µM): 19.5%
- viability, T/C (second compound 3.16 µM, first compound 3 µM): 12.3%
- viability, T/C (second compound 10 µM, first compound 0.00949 µM): 22.3%
- viability, T/C (second compound 10 µM, first compound 0.03 µM): 21.1%
- viability, T/C (second compound 10 µM, first compound 0.0949 µM): 19.6%
- viability, T/C (second compound 10 µM, first compound 0.3 µM): 16.3%
- viability, T/C (second compound 10 µM, first compound 0.949 µM): 15.9%
- viability, T/C (second compound 10 µM, first compound 3 µM): 9.75%

Structure (SMILES): Cn1ncnc1[C@H]1c2n[nH]c(=O)c3cc(F)cc(c23)N[C@@H]1c1ccc(F)cc1
- viability, T/C (compound 0.00316 µM): 93.3% and 79.8% (2×) and 89.1%
- viability, T/C (compound 0.1 µM): 62.6% [middle of 4 runs]
- IC50 (curve of compound): > 100 nM

Structure (SMILES): C=CC(=O)N1CCN(c2nc(=O)n(-c3c(C)ccnc3C(C)C)c3nc(-c4c(O)cccc4F)c(F)cc23)C(C)C1 (centres undefined) + CC(Nc1ccc2c(c1)OCCn1cc(N3C(=O)OCC3C(F)F)nc1-2)C(N)=O
- IC50 [5]: > 10000 nM
- IC50 [6]: > 10000 nM
- IC50 [1]: > 10000 nM
- IC50 [2]: < 31.6 nM
- IC50 [3]: < 31.6 nM
- IC50 [4]: < 31.6 nM
- viability, T/C [7]: 83.2%
- viability, T/C [8]: 81.4%
- viability, T/C [9]: 111%
- viability, T/C [10]: 126%
- viability, T/C [11]: 117%
- viability, T/C [12]: 120%
- viability, T/C [13]: 99.2%
- viability, T/C [14]: 88.4%
- viability, T/C [15]: 95.1%
- viability, T/C [16]: 89.5%
- viability, T/C [17]: 91.7%
- viability, T/C [18]: 111%
- viability, T/C [19]: 70.7%
- viability, T/C [20]: 78.6%
- viability, T/C [21]: 71.5%
- viability, T/C [22]: 70.2%
- viability, T/C [23]: 87.4%
- viability, T/C [24]: 101%
- viability, T/C [25]: 49.7%
- viability, T/C [26]: 42.6%
- viability, T/C [27]: 45.5%
- viability, T/C [28]: 37.9%
- viability, T/C [29]: 60.9%
- viability, T/C [30]: 54.5%
- viability, T/C [31]: 20.8%
- viability, T/C [32]: 22%
- viability, T/C [33]: 27%
- viability, T/C [34]: 22.8%
- viability, T/C [35]: 25.5%
- viability, T/C [36]: 21.1%
- viability, T/C [37]: 20.2%
- viability, T/C [38]: 16.5%
- viability, T/C [39]: 18.1%
- viability, T/C [40]: 20.4%
- viability, T/C [41]: 14.9%
- viability, T/C [42]: 17.9%

Structure (SMILES): CC1(C)CCC(Nc2ncc(C(F)(F)F)c(-c3c[nH]c4c(P(C)(C)=O)c(C#N)ccc34)n2)CN1 (centres undefined) + COc1c(OCCCN2CCOCC2)ccc2c3n(c(=NC(=O)c4cnc(N)nc4)nc12)CCN3
- IC50 [5]: 3170 nM
- IC50 [6]: 31.6 nM
- IC50 [1]: < 31.6 nM
- IC50 [2]: < 31.6 nM
- IC50 [3]: < 31.6 nM
- IC50 [4]: < 31.6 nM
- viability, T/C [7]: 56.2%
- viability, T/C [8]: 58.8%
- viability, T/C [9]: 54.5%
- viability, T/C [10]: 57.2%
- viability, T/C [11]: 50.1%
- viability, T/C [12]: 0.44%
- viability, T/C [13]: 42.3%
- viability, T/C [14]: 43.9%
- viability, T/C [15]: 49.2%
- viability, T/C [16]: 47.7%
- viability, T/C [17]: 58.8%
- viability, T/C [18]: 0.48%
- viability, T/C [19]: 31.6%
- viability, T/C [20]: 32.6%
- viability, T/C [21]: 33.7%
- viability, T/C [22]: 30.9%
- viability, T/C [23]: 21.5%
- viability, T/C [24]: 0.35%
- viability, T/C [25]: 17.8%
- viability, T/C [26]: 16.8%
- viability, T/C [27]: 15.5%
- viability, T/C [28]: 18.6%
- viability, T/C [29]: 7.14%
- viability, T/C [30]: 0.28%
- viability, T/C [31]: 7.08%
- viability, T/C [32]: 6.11%
- viability, T/C [33]: 5.71%
- viability, T/C [34]: 5.56%
- viability, T/C [35]: 2.4%
- viability, T/C [36]: 0.23%
- viability, T/C [37]: 3.57%
- viability, T/C [38]: 2.68%
- viability, T/C [39]: 3.18%
- viability, T/C [40]: 2.83%
- viability, T/C [41]: 1.6%
- viability, T/C [42]: 0.23%
